Active and inactive are the calls of the source. The rule behind the calls is not given here.
Legend:
[1] = Cytotoxicity against C57BL/6 mouse bone marrow monocytes assessed as reduction in cell viability at 20 uM after 72 hrs in presence of M-CSF by MTS assay; type: cell-based; conditions: bone marrow monocyte
[2] = Selectivity index, ratio of IC50 for C57BL/6 mouse bone marrow monocytes to IC50 for RANKL-induced C57BL/6 mouse bone marrow monocytes differentiation into osteoclasts; design: species or system Bone marrow monocyte
[3] = Inhibition of RANKL-induced C57BL/6 mouse bone marrow monocytes differentiation into osteoclasts at 0.1 uM after 6 days in presence of M-CSF by tartrate-resistant acid phosphatase staining based assay relative to control; type: functional; conditions: C57BL/6, Bone marrow monocyte, 144 h
[4] = tested on: Mus musculus; assay: Protection against ovariectomized-induced osteoporosis in C57BL/6 mouse assessed as increase in trabecular thickness of femur at 20 mg/kg, ip administered for 60 days by micro computed tomography; type: functional, organism-based
[5] = species: Mus musculus; assay: Inhibition of RANKL-induced ERK phosphorylation in mouse […] cells at 10 uM pretreated for 4 hrs followed by RANKL stimulation measured for 60 mins by Western blot method; type: cell-based
[6] = tested on: Bone marrow monocyte; assay: Inhibition of RANKL-induced CTR mRNA expression in C57BL/6 mouse bone marrow monocytes measured after 5 days in presence of M-CSF by SYBR green-dye based qRT-PCR analysis; type: functional, cell-based
[7] = tested on: Mus musculus; assay: Inhibition of ovariectomized-induced osteoclast activity in C57BL/6 mouse femur at 20 mg/kg, ip administered for 60 days by tartrate-resistant acid phosphatase staining method; type: functional, organism-based
[8] = species: Mus musculus; assay: Inhibition of RANKL-induced IKK-mediated NF-kappa-B p65 phosphorylation in mouse […] cells at 10 uM pretreated for 4 hrs followed by RANKL stimulation measured for 60 mins by Western blot method; type: cell-based
[9] = tested on: Bone marrow monocyte; assay: Inhibition of RANKL-induced NFATc1 mRNA expression in C57BL/6 mouse bone marrow monocytes measured after 5 days in presence of M-CSF by SYBR green-dye based qRT-PCR analysis; type: functional, cell-based
[10] = Inhibition of RANKL-induced C57BL/6 mouse bone marrow monocytes differentiation into osteoclasts at 2 uM after 6 days in presence of M-CSF by tartrate-resistant acid phosphatase staining based assay relative to control; type: functional; conditions: C57BL/6, Bone marrow monocyte, 144 h
[11] = Cytotoxicity against C57BL/6 mouse bone marrow monocytes assessed as reduction in cell viability at 2 uM after 72 hrs in presence of M-CSF by MTS assay; type: cell-based; conditions: bone marrow monocyte
[12] = tested on: Bone marrow monocyte; assay: Inhibition of RANKL-induced C-src mRNA expression in C57BL/6 mouse bone marrow monocytes measured after 5 days in presence of M-CSF by SYBR green-dye based qRT-PCR analysis; type: functional, cell-based
[13] = tested on: Mus musculus; assay: Protection against ovariectomized-induced osteoporosis in C57BL/6 mouse assessed as increase in bone mineral density of femur at 20 mg/kg, ip administered for 60 days by micro computed tomography; type: functional, organism-based
[14] = tested on: Bone marrow monocyte; assay: Inhibition of RANKL-induced TRAP mRNA expression in C57BL/6 mouse bone marrow monocytes at 10 uM in presence of M-CSF by SYBR green-dye based qRT-PCR analysis; type: functional, cell-based; conditions: TDE = time-dependent effect
[15] = tested on: Bone marrow monocyte; assay: Inhibition of RANKL-induced cathepsin K mRNA expression in C57BL/6 mouse bone marrow monocytes measured after 5 days in presence of M-CSF by SYBR green-dye based qRT-PCR analysis; type: functional, cell-based
[16] = Effect on osteblast differentiation in mouse Mesenchymal stem cells at 2 to 10 uM measured after 7 days in presence of dexamethasone/b-glycerophosphate/Vitamin C by ALP staining assay; type: cell-based; conditions: mesenchymal stem cell, 168 h
[17] = species: Mus musculus; assay: Inhibition of RANKL-induced JNK phosphorylation in mouse […] cells at 10 uM pretreated for 4 hrs followed by RANKL stimulation measured for 60 mins by Western blot method; type: cell-based
[18] = Inhibition of RANKL-induced C57BL/6 mouse bone marrow monocytes differentiation into osteoclasts at 0.5 uM after 6 days in presence of M-CSF by tartrate-resistant acid phosphatase staining based assay relative to control; type: functional; conditions: C57BL/6, Bone marrow monocyte, 144 h
[19] = tested on: Mus musculus; assay: Protection against ovariectomized-induced osteoporosis in C57BL/6 mouse assessed as reduction in trabecular separation of femur at 20 mg/kg, ip administered for 60 days by micro computed tomography; type: functional, organism-based
[20] = target: MAP kinase p38 (Mus musculus) (UniProt P47811+O08911+Q9WUI1+Q9Z1B7); assay: Inhibition of RANKL-induced p38 phosphorylation in mouse […] cells at 10 uM pretreated for 4 hrs followed by RANKL stimulation measured for 60 mins by Western blot method; type: cell-based
[21] = tested on: Mus musculus; assay: Protection against ovariectomized-induced osteoporosis in C57BL/6 mouse assessed as increase in trabecular number of femur at 20 mg/kg, ip administered for 60 days by micro computed tomography; type: functional, organism-based
[22] = tested on: Bone marrow monocyte; assay: Inhibition of RANKL-induced TRAP mRNA expression in C57BL/6 mouse bone marrow monocytes measured after 5 days in presence of M-CSF by SYBR green-dye based qRT-PCR analysis; type: functional, cell-based
[23] = tested on: Mus musculus; assay: Inhibition of ovariectomized-induced osteoclast activity in C57BL/6 mouse femur at 5 mg/kg, ip administered for 60 days by tartrate-resistant acid phosphatase staining; type: functional, organism-based
[24] = tested on: Mus musculus; assay: Protection against ovariectomized-induced osteoporosis in C57BL/6 mouse assessed as increase in ratio of bone volume to tissue volume of femur at 20 mg/kg, ip administered for 60 days by micro computed tomography; type: functional, organism-based
[25] = tested on: Bone marrow monocyte; assay: Inhibition of RANKL-induced NFATc1 mRNA expression in C57BL/6 mouse bone marrow monocytes at 10 uM in presence of M-CSF by SYBR green-dye based qRT-PCR analysis; type: functional, cell-based; conditions: TDE = time-dependent effect
[26] = tested on: Bone marrow monocyte; assay: Inhibition of RANKL-induced CTR mRNA expression in C57BL/6 mouse bone marrow monocytes at 10 uM in presence of M-CSF by SYBR green-dye based qRT-PCR analysis; type: functional, cell-based; conditions: TDE = time-dependent effect
[27] = tested on: Bone marrow monocyte; assay: (§1) Inhibition of RANKL-induced C57BL/6 mouse bone marrow monocytes differentiation into osteoclasts after 6 days in presence of M-CSF by tartrate-resistant acid phosphatase staining based assay; type: functional, cell-based
[28] = as §1; type: functional, cell-based; conditions: C57BL/6, Bone marrow monocyte, 144 h
[29] = species: Mus musculus; assay: Inhibition of RANKL-induced IKK mediated IkappaBalpha degradation in mouse […] cells at 10 uM pretreated for 4 hrs followed by RANKL stimulation measured for 60 mins by Western blot method; type: cell-based
[30] = tested on: Mus musculus; assay: Toxicity in ovariectomized C57BL/6 mouse assessed as effect on body weight at 5 to 20 mg/kg, ip administered for 60 days measured every 7 days during compound dosing; type: organism-based; conditions: in vivo
[31] = Cytotoxicity against C57BL/6 mouse bone marrow monocytes assessed as reduction in cell viability after 72 hrs in presence of M-CSF by MTS assay; type: cell-based; conditions: C57BL/6, Bone marrow monocyte
[32] = Potency index, ratio of maslinic acid IC50 to compound IC50 for RANKL-induced C57BL/6 mouse bone marrow monocytes differentiation into osteoclasts; type: functional, Bone marrow monocyte
[33] = tested on: Bone marrow monocyte; assay: Inhibition of RANKL-induced cathepsin K mRNA expression in C57BL/6 mouse bone marrow monocytes at 10 uM in presence of M-CSF by SYBR green-dye based qRT-PCR analysis; type: functional, cell-based; conditions: TDE = time-dependent effect
[34] = tested on: Bone marrow monocyte; assay: Inhibition of RANKL-induced C-src mRNA expression in C57BL/6 mouse bone marrow monocytes at 10 uM in presence of M-CSF by SYBR green-dye based qRT-PCR analysis; type: functional, cell-based; conditions: TDE = time-dependent effect
[35] = tested on: Mus musculus; assay: Protection against ovariectomized-induced osteoporosis in C57BL/6 mouse assessed as reduction in femur structure model index at 20 mg/kg, ip administered for 60 days by micro computed tomography; type: functional, organism-based
[36] = tested on: Mus musculus; assay: Anti-osteoporotic activity in ovariectomized-induced osteoporosis in C57BL/6 mouse assessed as increase in bone strength at 20 mg/kg, ip administered for 60 days by three point bending test; type: functional, organism-based

SMILES: CNC(=O)c1cc2c(cc1OC)[C@@]1(C)Cc3nc(C)oc3C(C)(C)[C@@H]1CC2
- Activity [1]: Toxic
- Ratio IC50 [2]: 2208
- inhibition at 0.1 µM [3]: 72.3%
- Activity [4]: Active
- inhibition [5]: Active
- inhibition [6]: Dose-dependent effect
- inhibition [7]: Active
- inhibition [8]: Active
- inhibition [9]: Dose-dependent effect
- inhibition at 2 µM [10]: 100%
- Activity [11]: Non-Toxic
- inhibition [12]: Dose-dependent effect
- Activity [13]: Active
- inhibition [14]: Tde
- inhibition [15]: Dose-dependent effect
- Activity [16]: Non-Toxic
- inhibition [17]: Active
- inhibition at 0.5 µM [18]: 92.7%
- Activity [19]: Active
- inhibition [20]: Active
- Activity [21]: Active
- inhibition [22]: Dose-dependent effect
- inhibition [23]: inactive
- Activity [24]: Active
- inhibition [25]: Tde
- inhibition [26]: Tde
- inhibition [27]: Dose-dependent effect
- IC50 [28]: 0.04 µM
- inhibition [29]: Active
- Activity [30]: Non-Toxic
- IC50 [31]: 88.3 µM
- Ratio IC50 [32]: 16
- inhibition [33]: Tde
- inhibition [34]: Tde
- Activity [35]: Active
- Activity [36]: Active

Source: ChEMBL document CHEMBL4038270, “Synthesis of heterocyclic ring-fused tricyclic diterpene analogs as novel inhibitors of RANKL-induced osteoclastogenesis and bone resorption” (Eur J Med Chem, 2017)
